Measured values from patent US11970465B1, “Ethyl {[4-benzoyl-5-(3-fluorophenyl)-4H-1,2,4-triazol-3-yl]thio}acetate as an antimicrobial compound” (priority 2023, dated 2024).

Assays:
[1] = tested on: different microbes (Bacillus cereus, Staphylococcus aureus, Pseudomonas aeruginosa, Escherichia coli, Aspergillus flavus, Chrysosporium keratinophilum); test: agar plate disc-diffusion antimicrobial test; assay type: cell-based; conditions: disc wetted with 10 μL of 10 mg/mL in DMSO; 37° C., 48 h (72 h for fungi); inhibition zones measured in mm but not given
Method: The agar plate disc-diffusion method was applied. Sterilized filter papers (6 mm in diameter) were wetted with 10 μL of a solution of ethyl {[4-benzoyl-5-(3-fluorophenyl)-4H-1,2,4-triazol-3-yl]thio}acetate (III) to be tested, containing 10 mg/mL in DMSO, and the discs were allowed to air dry. The discs were then placed onto the surface of agar plates (nutrient agar for bacteria and Sabouraud's dextrose agar for fungi) seeded with the test organism. Each plate contained 15 mL of the agar medium, previously seeded with 0.2 mL of the broth culture of each organism pregrown for 18 h. The plates were incubated at 37° C. for 48 h, and 72 h for fungi. The inhibition zones was measured in mm. Discs impregnated with DMSO were used as a control, and its inhibition zone was subtracted from the tested compound actual inhibition zone. […] The antibacterial activity was screened against gram positive bacteria namely Bacillus cereus and Staphylococcus aureus and gram-negative bacterial strains namely Pseudomonas aeruginosa and Escherichia coli, while the antifungal activity was screened against Aspergillus flavus and Chrysosporium keratinophilum.

With `CCOC(=O)CSc1nnc(-c2cccc(F)c2)n1C(=O)c1ccccc1` [III, ethyl {[4-benzoyl-5-(3-fluorophenyl)-4H-1,2,4-triazol-3-yl]thio}acetate] the antimicrobial activities [1] was “excellent antimicrobial activities” and the melting point was 154 to 155 °C.
